# Laboratory results reported in ChEMBL document CHEMBL1800066 (J Med Chem, 2011).
# Experiments:
# [1] = biological target: Hepatocyte growth factor receptor (Homo sapiens, UniProt P08581, Y1230C)
# [2] = biological target: Fibroblast growth factor receptor 1 (Homo sapiens, UniProt P11362); experiment: Inhibition of human FGFR1
# Mus musculus = experiment: Toxicity in human GTL16 cells xenografted CD1 nu/nu mouse assessed as mortality at 10 to 200 mg/kg, po qd; format: organism-based; design: dose 10-200 mg/kg, route oral; conditions: in vivo
# [3] = biological target: T1, Hepatocyte growth factor receptor (Homo sapiens, UniProt P08581); experiment: Binding affinity to human recombinant His6-tagged unphosphorylated c-Met cytosolic domain
# [4] = biological target: T1, Hepatocyte growth factor receptor; experiment: Inhibition of c-MET overexpressed in human GTL-16 cells assessed as phosphorylation at C-terminal Y1365 after 2 hrs by Western blot analysis; format: cell-based
# [5] = Inhibition of potassium channel IKr
# [6] = biological target: Fibroblast growth factor receptor 3 (Homo sapiens, UniProt P22607); experiment: Inhibition of human FGFR3
# [7] = Plasma clearance in rat at 2 mg/kg, iv and 5 mg/kg, po; format: ADME, organism-based
# [8] = biological target: Platelet-derived growth factor receptor alpha (Homo sapiens, UniProt P16234); experiment: Inhibition of human PDGFR-alpha
# [9] = biological target: Voltage-gated inwardly rectifying potassium channel KCNH2 (Homo sapiens, UniProt Q12809); experiment: Inhibition of Kv11.1 channel
# [10] = biological target: Tyrosine-protein kinase Mer (Homo sapiens, UniProt Q12866); experiment: Inhibition of human Mer
# Aurora kinase A = Aurora kinase A (Homo sapiens, UniProt O14965); experiment: Inhibition of human Aurora A
# [11] = Half life in rat at 2 mg/kg, iv and 5 mg/kg, po; format: ADME, organism-based; conditions: in vivo
# [12] = Plasma clearance in dog at 1 mg/kg, iv; format: ADME, organism-based, Canis lupus familiaris; design: dose 1 mg/kg, route intravenous
# [13] = Volume of distribution at steady state in rat at 2 mg/kg, iv and 5 mg/kg, po; format: ADME, organism-based; conditions: in vivo, read-out: Vdss
# [14] = biological target: Hepatocyte growth factor receptor (Homo sapiens, UniProt P08581, Y1230H)
# [15] = AUC (0 to infinity) in rat at 5 mg/kg, po; format: ADME, organism-based; design: dose 5 mg/kg, route oral, time infinity; conditions: plasma
# [16] = Cmax in monkey at 0.5 mg/kg, po; format: ADME, organism-based, Macaca mulatta; design: dose 0.5 mg/kg, route oral; conditions: rhesus monkey, in vivo
# [17] = biological target: T1, Hepatocyte growth factor receptor; experiment: Inhibition of recombinant human c-MET phosphorylation at C-terminal Y1349
# [18] = Tmax in monkey at 0.5 mg/kg, po; format: ADME, organism-based, Macaca mulatta; design: dose 0.5 mg/kg, route oral; conditions: rhesus monkey, in vivo
# [19] = Oral bioavailability in monkey at 0.5 mg/kg; format: ADME, organism-based, Macaca mulatta; conditions: rhesus monkey, in vivo
# [20] = biological target: Hepatocyte growth factor receptor (Homo sapiens, UniProt P08581, Y1235D)
# [21] = biological target: Hepatocyte growth factor receptor (Homo sapiens, UniProt P08581, N1100Y)
# [22] = Volume of distribution at steady state in mouse at 1 mg/kg, iv; format: ADME, organism-based; design: dose 1 mg/kg, route intravenous; conditions: in vivo, read-out: Vdss
# [23] = biological target: Tyrosine-protein kinase JAK2 (Homo sapiens, UniProt O60674); experiment: Inhibition of human JAK2
compound,measurement,setting,value
CN(C[C@@H]1COCCO1)S(=O)(=O)Nc1ccc2ccc3ncc(-c4cnn(C)c4)cc3c(=O)c2c1 [MK-2461],IC50,[1],0.0015 µM
same,IC50,[2],0.065 µM
same,Activity,Mus musculus,Non-toxic
same,Kd,[3],0.025 µM
same,IC50,[4],0.05 µM
same,IC50,[5],> 30 µM
same,IC50,[6],0.05 µM
same,clearance,[7],0.546 L/h/kg
same,IC50,[8],< 0.1 µM
same,IC50,[9],> 30 µM
same,IC50,[10],0.024 µM
same,IC50,Aurora kinase A,0.29 µM
same,half-life,[11],0.8 h
same,clearance,[12],0.258 L/h/kg
same,Vd,[13],0.4 L/kg
same,IC50,[14],0.001 µM
same,AUC(0-inf),[15],11.8 µM·h
same,Cmax,[16],0.12 µM
same,IC50,[17],0.1 µM
same,Tmax,[18],3 h
same,bioavailability,[19],14%
same,IC50,[20],0.0005 µM
same,IC50,[21],0.0015 µM
same,Vd,[22],3.2 L/kg
same,IC50,[23],0.23 µM
